# Test results taken from PubChem BioAssay (NCI).
#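 Briefly, cells in 96-well plates were exposed to five compound concentrations for 48 h, and endpoints were estimated by linear interpolation. At the GI50, growth is halved. TGI: total growth inhibition.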
# Legend:
# Assay in all cases: inhibition of tumour cell growth, NCI panel, 48 h
# 786-0 renal = system: 786-0 renal
# MDA-MB-231 breast = system: MDA-MB-231 breast
# OVCAR-8 ovarian = system: OVCAR-8 ovarian
# SK-OV-3 ovarian = system: SK-OV-3 ovarian
# SN12C renal = system: SN12C renal
# HT29 colon = system: HT29 colon
# K-562 leukemia = system: K-562 leukemia
# EKVX NSCLC = system: EKVX NSCLC
# SW-620 colon = system: SW-620 colon
# SK-MEL-5 melanoma = system: SK-MEL-5 melanoma
# HOP-62 NSCLC = system: HOP-62 NSCLC
# SNB-19 CNS = system: SNB-19 CNS
# SR leukemia = system: SR leukemia
# ACHN renal = system: ACHN renal
# HL-60(TB) leukemia = system: HL-60(TB) leukemia
# CCRF-CEM leukemia = system: CCRF-CEM leukemia
# SF-295 CNS = system: SF-295 CNS
# IGROV1 ovarian = system: IGROV1 ovarian
# RPMI-8226 leukemia = system: RPMI-8226 leukemia
# HOP-92 NSCLC = system: HOP-92 NSCLC
# CAKI-1 renal = system: CAKI-1 renal
# LOX IMVI melanoma = system: LOX IMVI melanoma
# NCI-H522 lung = system: NCI-H522 lung
# KM12 colon = system: KM12 colon
# A549 NSCLC = system: A549 NSCLC
# HS 578T breast = system: HS 578T breast
# NCI-H460 lung = system: NCI-H460 lung
# OVCAR-5 ovarian = system: OVCAR-5 ovarian
# UACC-257 melanoma = system: UACC-257 melanoma
# UACC-62 melanoma = system: UACC-62 melanoma
# SF-268 CNS = system: SF-268 CNS
# HCT-116 colon = system: HCT-116 colon
# SNB-75 CNS = system: SNB-75 CNS
# PC-3 prostate = system: PC-3 prostate
# SF-539 CNS = system: SF-539 CNS
# A498 renal = system: A498 renal
# UO-31 renal = system: UO-31 renal
# OVCAR-3 ovarian = system: OVCAR-3 ovarian
# MOLT-4 leukemia = system: MOLT-4 leukemia
# TK-10 renal = system: TK-10 renal
# HCT-15 colon = system: HCT-15 colon
# COLO 205 colon = system: COLO 205 colon
# SK-MEL-2 melanoma = system: SK-MEL-2 melanoma
# BT-549 breast = system: BT-549 breast
# HCC-2998 colon = system: HCC-2998 colon
# T-47D breast = system: T-47D breast
# NCI-H226 lung = system: NCI-H226 lung
# MDA-MB-435 = system: MDA-MB-435
# NCI/ADR-RES ovarian = system: NCI/ADR-RES ovarian
# MCF7 breast = system: MCF7 breast
# U251 CNS = system: U251 CNS
# RXF 393 renal = system: RXF 393 renal
# M14 melanoma = system: M14 melanoma
# OVCAR-4 ovarian = system: OVCAR-4 ovarian
# SK-MEL-28 melanoma = system: SK-MEL-28 melanoma
# MALME-3M melanoma = system: MALME-3M melanoma
# DU-145 prostate = system: DU-145 prostate
compound,measurement,setting,value
CN(C)CCCNc1c2ccccc2nc2c1oc1ccc(Cl)cc12,GI50,786-0 renal,3.22 µM
same,TGI,786-0 renal,14.4 µM
same,GI50,MDA-MB-231 breast,2 µM
same,TGI,MDA-MB-231 breast,5.69 µM
same,GI50,OVCAR-8 ovarian,3.75 µM
same,TGI,OVCAR-8 ovarian,20.2 µM
same,GI50,SK-OV-3 ovarian,4.53 µM
same,TGI,SK-OV-3 ovarian,17.3 µM
same,GI50,SN12C renal,2.58 µM
same,TGI,SN12C renal,13.1 µM
same,GI50,HT29 colon,1.03 µM
same,TGI,HT29 colon,2.94 µM
same,GI50,K-562 leukemia,1.25 µM
same,TGI,K-562 leukemia,11.3 µM
same,GI50,EKVX NSCLC,5.22 µM
same,TGI,EKVX NSCLC,18.6 µM
same,GI50,SW-620 colon,0.777 µM
same,TGI,SW-620 colon,8.63 µM
same,GI50,SK-MEL-5 melanoma,12.5 µM
same,TGI,SK-MEL-5 melanoma,25 µM
same,GI50,HOP-62 NSCLC,4.08 µM
same,TGI,HOP-62 NSCLC,17 µM
same,GI50,SNB-19 CNS,4.95 µM
same,TGI,SNB-19 CNS,18.4 µM
same,GI50,SR leukemia,2.19 µM
same,TGI,SR leukemia,10.1 µM
same,GI50,ACHN renal,1.76 µM
same,TGI,ACHN renal,15.6 µM
same,GI50,HL-60(TB) leukemia,2.71 µM
same,TGI,HL-60(TB) leukemia,10.1 µM
same,GI50,CCRF-CEM leukemia,2.21 µM
same,TGI,CCRF-CEM leukemia,12.6 µM
same,GI50,SF-295 CNS,4.6 µM
same,TGI,SF-295 CNS,17.3 µM
same,GI50,IGROV1 ovarian,3.68 µM
same,TGI,IGROV1 ovarian,16.2 µM
same,GI50,RPMI-8226 leukemia,2.66 µM
same,GI50,HOP-92 NSCLC,1.37 µM
same,TGI,HOP-92 NSCLC,6.59 µM
same,GI50,CAKI-1 renal,2.32 µM
same,TGI,CAKI-1 renal,13.3 µM
same,GI50,LOX IMVI melanoma,1.64 µM
same,TGI,LOX IMVI melanoma,3.33 µM
same,GI50,NCI-H522 lung,3.73 µM
same,TGI,NCI-H522 lung,16.6 µM
same,GI50,KM12 colon,2.75 µM
same,TGI,KM12 colon,14.9 µM
same,GI50,A549 NSCLC,3.43 µM
same,TGI,A549 NSCLC,15.3 µM
same,GI50,HS 578T breast,4.65 µM
same,TGI,HS 578T breast,21.3 µM
same,GI50,NCI-H460 lung,1.05 µM
same,TGI,NCI-H460 lung,4.79 µM
same,GI50,OVCAR-5 ovarian,5.24 µM
same,TGI,OVCAR-5 ovarian,18.8 µM
same,GI50,UACC-257 melanoma,4.65 µM
same,TGI,UACC-257 melanoma,17.2 µM
same,GI50,UACC-62 melanoma,10.9 µM
same,TGI,UACC-62 melanoma,24.5 µM
same,GI50,SF-268 CNS,3.06 µM
same,TGI,SF-268 CNS,16.5 µM
same,GI50,HCT-116 colon,0.949 µM
same,TGI,HCT-116 colon,2.32 µM
same,GI50,SNB-75 CNS,3.67 µM
same,TGI,SNB-75 CNS,17.4 µM
same,GI50,PC-3 prostate,3.92 µM
same,TGI,PC-3 prostate,15.8 µM
same,GI50,SF-539 CNS,3.31 µM
same,TGI,SF-539 CNS,12.7 µM
same,GI50,A498 renal,9.15 µM
same,TGI,A498 renal,22.9 µM
same,GI50,UO-31 renal,3.15 µM
same,TGI,UO-31 renal,15.1 µM
same,GI50,OVCAR-3 ovarian,6.44 µM
same,TGI,OVCAR-3 ovarian,20.2 µM
same,GI50,MOLT-4 leukemia,0.521 µM
same,TGI,MOLT-4 leukemia,18.9 µM
same,GI50,TK-10 renal,7.35 µM
same,TGI,TK-10 renal,20.1 µM
same,GI50,HCT-15 colon,1.45 µM
same,TGI,HCT-15 colon,6.5 µM
same,GI50,COLO 205 colon,1.94 µM
same,TGI,COLO 205 colon,9.57 µM
same,GI50,SK-MEL-2 melanoma,4.2 µM
same,TGI,SK-MEL-2 melanoma,16.4 µM
same,GI50,BT-549 breast,3.76 µM
same,TGI,BT-549 breast,14.3 µM
same,GI50,HCC-2998 colon,1.43 µM
same,TGI,HCC-2998 colon,3.73 µM
same,GI50,T-47D breast,6.18 µM
same,TGI,T-47D breast,19.9 µM
same,GI50,NCI-H226 lung,4.18 µM
same,TGI,NCI-H226 lung,18.2 µM
same,GI50,MDA-MB-435,3.91 µM
same,TGI,MDA-MB-435,16.1 µM
same,GI50,NCI/ADR-RES ovarian,1.52 µM
same,TGI,NCI/ADR-RES ovarian,10.8 µM
same,GI50,MCF7 breast,1.23 µM
same,TGI,MCF7 breast,4.59 µM
same,GI50,U251 CNS,3.69 µM
same,TGI,U251 CNS,16.4 µM
same,GI50,RXF 393 renal,1.95 µM
same,TGI,RXF 393 renal,6.74 µM
same,GI50,M14 melanoma,1.75 µM
same,TGI,M14 melanoma,4.2 µM
same,GI50,OVCAR-4 ovarian,2.83 µM
same,TGI,OVCAR-4 ovarian,14 µM
same,GI50,SK-MEL-28 melanoma,4.48 µM
same,TGI,SK-MEL-28 melanoma,16.2 µM
same,GI50,MALME-3M melanoma,4.5 µM
same,TGI,MALME-3M melanoma,17.1 µM
same,GI50,DU-145 prostate,4.1 µM
same,TGI,DU-145 prostate,16.6 µM
